Test system: Bacillus anthracis spores
Type: cell-based, Bacillus anthracis (Sterne)

CCCCCCCCCCCC[N+](C)(C)C.[Br-] [DTAB, dodecyltrimethylammonium bromide]
% killing: 40%
Spore colonies: 84 ± 4
reduction in bacterial survival: approximately 40%
reduction of bacterial survival: approximately 40%

CN(C)c1ccc2nc3ccc(=[N+](C)C)cc-3sc2c1 [MB, methylene blue]
inhibition of B. anthracis survival: no inhibition
reduction in survival for B. anthracis: 75%

O=C1OC2(c3cc(I)c(O)c(I)c3Oc3c2cc(I)c(O)c3I)c2c(Cl)c(Cl)c(Cl)c(Cl)c21 [RBL, Rose Bengal lactone]
reduction in survival for B. anthracis: approximately 40%

Reference: US20050148254A1, “Light-activated biocidal polyelectrolytes” (priority 2003, published 2005)
